From ChEMBL document CHEMBL5291721, “A preclinical secondary pharmacology resource illuminates target-adverse drug reaction associations of marketed drugs” (Nat Commun, 2023)

Columns and labels:
[1] = molecular target: T1, Alpha-1A adrenergic receptor (Homo sapiens, UniProt P35348); format: functional, cell-based
T1 sequence (P35348 whole entry): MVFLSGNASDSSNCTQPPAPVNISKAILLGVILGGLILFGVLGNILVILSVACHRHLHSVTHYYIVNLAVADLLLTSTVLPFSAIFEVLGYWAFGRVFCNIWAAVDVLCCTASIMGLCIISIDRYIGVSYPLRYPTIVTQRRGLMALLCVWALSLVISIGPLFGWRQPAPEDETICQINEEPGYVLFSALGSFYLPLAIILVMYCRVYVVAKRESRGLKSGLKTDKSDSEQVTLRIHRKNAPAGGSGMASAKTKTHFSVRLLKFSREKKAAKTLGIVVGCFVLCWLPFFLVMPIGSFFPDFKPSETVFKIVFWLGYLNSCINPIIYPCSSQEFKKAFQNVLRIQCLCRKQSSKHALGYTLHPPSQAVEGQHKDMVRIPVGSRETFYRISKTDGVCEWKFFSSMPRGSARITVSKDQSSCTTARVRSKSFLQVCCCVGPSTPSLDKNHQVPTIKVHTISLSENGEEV

[2] = molecular target: Beta-2 adrenergic receptor (Homo sapiens, UniProt P07550)
Sequence of Beta-2 adrenergic receptor (P07550 whole entry): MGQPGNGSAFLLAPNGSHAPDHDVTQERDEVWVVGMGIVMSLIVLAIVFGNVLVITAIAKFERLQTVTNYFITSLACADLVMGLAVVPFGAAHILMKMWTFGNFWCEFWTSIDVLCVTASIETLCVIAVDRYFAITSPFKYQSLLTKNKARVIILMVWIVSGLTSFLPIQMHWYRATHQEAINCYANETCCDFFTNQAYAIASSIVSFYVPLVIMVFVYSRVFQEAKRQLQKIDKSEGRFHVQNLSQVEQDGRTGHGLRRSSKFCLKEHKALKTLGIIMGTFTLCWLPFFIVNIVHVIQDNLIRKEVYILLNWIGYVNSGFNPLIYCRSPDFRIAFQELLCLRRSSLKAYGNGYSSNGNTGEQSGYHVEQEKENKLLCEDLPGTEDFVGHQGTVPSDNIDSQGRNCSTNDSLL

[3] = molecular target: 5-hydroxytryptamine receptor 2B (Homo sapiens, UniProt P41595); format: functional, cell-based
Sequence of 5-hydroxytryptamine receptor 2B (P41595 whole entry): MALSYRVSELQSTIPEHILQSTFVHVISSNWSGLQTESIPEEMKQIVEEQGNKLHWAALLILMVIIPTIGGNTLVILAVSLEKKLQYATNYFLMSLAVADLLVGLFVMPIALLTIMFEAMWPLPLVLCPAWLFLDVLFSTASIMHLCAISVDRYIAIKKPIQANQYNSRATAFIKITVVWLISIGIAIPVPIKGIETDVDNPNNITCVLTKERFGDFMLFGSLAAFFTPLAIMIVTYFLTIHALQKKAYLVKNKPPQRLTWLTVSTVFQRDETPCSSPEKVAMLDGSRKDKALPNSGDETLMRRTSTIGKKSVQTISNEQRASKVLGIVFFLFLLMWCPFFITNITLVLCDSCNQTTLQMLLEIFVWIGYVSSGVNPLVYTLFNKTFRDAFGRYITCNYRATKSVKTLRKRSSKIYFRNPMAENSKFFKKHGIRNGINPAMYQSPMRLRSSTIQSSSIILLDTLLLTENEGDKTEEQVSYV

Melanocortin receptor 4 = Melanocortin receptor 4 (Homo sapiens, UniProt P32245)
Sequence of Melanocortin receptor 4 (P32245 whole entry): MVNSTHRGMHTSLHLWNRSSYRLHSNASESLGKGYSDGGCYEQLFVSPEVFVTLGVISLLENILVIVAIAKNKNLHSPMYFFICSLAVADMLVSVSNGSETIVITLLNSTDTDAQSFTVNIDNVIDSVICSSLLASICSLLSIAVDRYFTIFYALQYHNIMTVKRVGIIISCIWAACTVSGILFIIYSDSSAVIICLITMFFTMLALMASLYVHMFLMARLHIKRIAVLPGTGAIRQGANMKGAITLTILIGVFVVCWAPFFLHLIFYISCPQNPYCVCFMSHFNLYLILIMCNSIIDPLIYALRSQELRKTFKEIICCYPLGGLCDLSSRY

[4] = molecular target: Kappa-type opioid receptor (Homo sapiens, UniProt P41145)
Sequence of Kappa-type opioid receptor (P41145 whole entry): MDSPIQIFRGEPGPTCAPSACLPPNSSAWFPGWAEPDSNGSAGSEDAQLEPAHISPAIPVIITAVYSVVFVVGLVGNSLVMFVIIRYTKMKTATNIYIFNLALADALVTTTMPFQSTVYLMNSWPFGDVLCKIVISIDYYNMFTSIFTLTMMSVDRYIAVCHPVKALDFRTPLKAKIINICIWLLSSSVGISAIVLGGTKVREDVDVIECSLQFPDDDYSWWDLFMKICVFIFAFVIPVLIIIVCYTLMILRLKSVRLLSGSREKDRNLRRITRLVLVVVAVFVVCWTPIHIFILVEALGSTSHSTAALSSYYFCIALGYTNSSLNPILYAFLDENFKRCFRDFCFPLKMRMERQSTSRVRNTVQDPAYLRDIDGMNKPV

Adenosine receptor A3 = molecular target: T2, Adenosine receptor A3 (Homo sapiens, UniProt P0DMS8)
T2 sequence (P0DMS8 whole entry): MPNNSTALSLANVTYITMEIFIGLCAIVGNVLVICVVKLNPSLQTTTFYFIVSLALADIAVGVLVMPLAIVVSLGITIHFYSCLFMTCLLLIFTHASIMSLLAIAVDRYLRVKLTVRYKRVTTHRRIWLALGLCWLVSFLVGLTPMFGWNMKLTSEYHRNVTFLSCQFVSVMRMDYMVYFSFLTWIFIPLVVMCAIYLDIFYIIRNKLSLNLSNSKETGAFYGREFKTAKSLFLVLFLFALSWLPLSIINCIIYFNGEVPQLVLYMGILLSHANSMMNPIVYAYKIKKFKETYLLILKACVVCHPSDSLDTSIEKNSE

[5] = molecular target: T1, Alpha-1A adrenergic receptor; format: functional, cell-based; remark: listed apart in the source
[6] = molecular target: cGMP-inhibited 3',5'-cyclic phosphodiesterase 3A (Homo sapiens, UniProt Q14432); format: functional
Sequence of cGMP-inhibited 3',5'-cyclic phosphodiesterase 3A (Q14432 whole entry): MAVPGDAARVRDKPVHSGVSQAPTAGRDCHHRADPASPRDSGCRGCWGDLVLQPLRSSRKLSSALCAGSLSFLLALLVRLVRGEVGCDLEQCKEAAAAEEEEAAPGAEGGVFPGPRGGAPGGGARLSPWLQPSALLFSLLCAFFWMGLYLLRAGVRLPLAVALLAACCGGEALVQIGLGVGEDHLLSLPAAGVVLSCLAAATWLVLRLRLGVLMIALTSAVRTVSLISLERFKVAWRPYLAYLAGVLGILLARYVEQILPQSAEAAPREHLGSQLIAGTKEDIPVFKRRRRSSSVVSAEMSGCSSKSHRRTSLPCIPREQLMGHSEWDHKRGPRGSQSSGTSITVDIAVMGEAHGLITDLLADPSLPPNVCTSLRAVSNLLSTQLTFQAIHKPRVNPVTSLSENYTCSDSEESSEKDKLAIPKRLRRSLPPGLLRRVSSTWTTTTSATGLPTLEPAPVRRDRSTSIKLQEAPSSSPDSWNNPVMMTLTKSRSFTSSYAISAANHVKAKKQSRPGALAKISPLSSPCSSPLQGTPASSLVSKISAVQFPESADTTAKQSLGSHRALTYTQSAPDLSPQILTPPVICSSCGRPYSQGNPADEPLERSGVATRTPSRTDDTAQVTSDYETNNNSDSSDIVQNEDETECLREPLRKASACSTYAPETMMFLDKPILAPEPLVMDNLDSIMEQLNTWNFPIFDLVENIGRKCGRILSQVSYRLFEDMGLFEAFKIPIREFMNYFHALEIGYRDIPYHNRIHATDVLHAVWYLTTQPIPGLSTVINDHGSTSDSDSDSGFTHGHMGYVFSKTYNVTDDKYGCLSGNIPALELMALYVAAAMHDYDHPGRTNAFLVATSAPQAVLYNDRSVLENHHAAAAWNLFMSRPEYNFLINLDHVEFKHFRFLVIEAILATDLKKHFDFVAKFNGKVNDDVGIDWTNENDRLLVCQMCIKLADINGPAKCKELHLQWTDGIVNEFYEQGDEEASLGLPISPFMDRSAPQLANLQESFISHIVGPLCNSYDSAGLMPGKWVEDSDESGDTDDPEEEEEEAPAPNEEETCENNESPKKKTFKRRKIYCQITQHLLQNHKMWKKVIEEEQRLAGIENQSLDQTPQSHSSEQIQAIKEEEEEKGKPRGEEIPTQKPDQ

[7] = molecular target: Prostaglandin G/H synthase 1 (Homo sapiens, UniProt P23219); format: functional
Sequence of Prostaglandin G/H synthase 1 (P23219 whole entry): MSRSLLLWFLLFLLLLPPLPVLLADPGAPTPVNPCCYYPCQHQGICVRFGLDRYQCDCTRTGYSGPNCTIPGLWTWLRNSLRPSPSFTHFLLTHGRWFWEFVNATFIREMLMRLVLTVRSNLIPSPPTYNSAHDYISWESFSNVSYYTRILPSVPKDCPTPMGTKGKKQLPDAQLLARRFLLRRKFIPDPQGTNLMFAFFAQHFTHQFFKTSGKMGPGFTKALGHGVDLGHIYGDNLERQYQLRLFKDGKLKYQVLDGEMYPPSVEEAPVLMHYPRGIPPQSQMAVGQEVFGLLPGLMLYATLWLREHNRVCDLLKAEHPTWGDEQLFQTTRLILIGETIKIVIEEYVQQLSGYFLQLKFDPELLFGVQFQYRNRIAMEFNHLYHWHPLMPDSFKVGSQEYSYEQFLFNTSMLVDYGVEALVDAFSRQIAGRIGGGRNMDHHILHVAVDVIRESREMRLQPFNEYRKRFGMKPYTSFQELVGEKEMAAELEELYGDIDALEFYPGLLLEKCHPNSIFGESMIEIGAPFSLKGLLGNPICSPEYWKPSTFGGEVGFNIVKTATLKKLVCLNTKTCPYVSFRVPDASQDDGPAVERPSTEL

[8] = molecular target: Sodium-dependent noradrenaline transporter (Homo sapiens, UniProt P23975)
Sequence of Sodium-dependent noradrenaline transporter (P23975 whole entry): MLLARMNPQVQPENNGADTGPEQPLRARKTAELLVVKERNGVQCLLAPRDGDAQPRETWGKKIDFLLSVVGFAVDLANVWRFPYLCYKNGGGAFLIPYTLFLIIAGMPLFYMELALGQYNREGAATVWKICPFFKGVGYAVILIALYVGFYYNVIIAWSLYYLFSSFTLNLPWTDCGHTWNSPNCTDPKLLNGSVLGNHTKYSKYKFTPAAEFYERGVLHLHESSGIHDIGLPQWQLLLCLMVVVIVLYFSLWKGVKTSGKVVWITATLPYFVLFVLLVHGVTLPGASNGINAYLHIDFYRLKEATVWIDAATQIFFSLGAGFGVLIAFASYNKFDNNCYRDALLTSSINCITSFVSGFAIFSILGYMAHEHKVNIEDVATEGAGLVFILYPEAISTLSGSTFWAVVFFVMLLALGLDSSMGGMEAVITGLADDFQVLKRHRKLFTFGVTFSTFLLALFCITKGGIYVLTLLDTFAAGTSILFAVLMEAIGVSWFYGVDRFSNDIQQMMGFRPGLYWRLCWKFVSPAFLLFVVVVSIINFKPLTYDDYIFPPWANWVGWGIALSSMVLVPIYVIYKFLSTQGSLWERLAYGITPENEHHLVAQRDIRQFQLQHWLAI

Thromboxane A2 receptor = molecular target: T3, Thromboxane A2 receptor (Homo sapiens, UniProt P21731); format: functional, cell-based
T3 sequence (P21731 whole entry): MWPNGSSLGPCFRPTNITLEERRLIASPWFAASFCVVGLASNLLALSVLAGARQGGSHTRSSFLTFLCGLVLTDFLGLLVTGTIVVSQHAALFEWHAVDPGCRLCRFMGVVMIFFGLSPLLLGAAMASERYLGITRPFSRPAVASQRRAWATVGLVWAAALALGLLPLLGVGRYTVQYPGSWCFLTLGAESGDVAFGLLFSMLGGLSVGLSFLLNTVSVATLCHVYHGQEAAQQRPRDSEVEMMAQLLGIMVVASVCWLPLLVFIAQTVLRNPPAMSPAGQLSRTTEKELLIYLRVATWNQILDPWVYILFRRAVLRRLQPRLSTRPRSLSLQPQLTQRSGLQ

Estrogen receptor = molecular target: T4, Estrogen receptor (Homo sapiens, UniProt P03372)
T4 sequence (P03372 whole entry): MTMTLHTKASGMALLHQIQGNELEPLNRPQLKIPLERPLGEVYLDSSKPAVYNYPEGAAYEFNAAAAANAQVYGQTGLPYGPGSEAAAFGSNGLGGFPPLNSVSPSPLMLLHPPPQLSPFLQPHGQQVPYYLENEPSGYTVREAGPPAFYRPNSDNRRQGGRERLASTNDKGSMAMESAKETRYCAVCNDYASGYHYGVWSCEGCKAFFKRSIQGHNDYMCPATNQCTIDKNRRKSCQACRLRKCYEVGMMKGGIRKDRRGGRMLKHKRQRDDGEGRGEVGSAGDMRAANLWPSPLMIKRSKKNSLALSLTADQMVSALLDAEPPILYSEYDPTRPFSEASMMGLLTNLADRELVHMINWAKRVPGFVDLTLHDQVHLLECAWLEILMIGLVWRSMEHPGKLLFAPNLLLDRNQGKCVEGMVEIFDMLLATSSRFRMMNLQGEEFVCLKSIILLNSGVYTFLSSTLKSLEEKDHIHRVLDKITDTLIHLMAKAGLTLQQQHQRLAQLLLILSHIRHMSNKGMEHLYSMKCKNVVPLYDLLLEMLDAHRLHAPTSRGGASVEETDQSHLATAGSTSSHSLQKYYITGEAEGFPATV
Note: assay procedure not described here.

| SMILES | AC50 [1] [µM] | AC50 [2] [µM] | AC50 [3] [µM] | AC50 (Melanocortin receptor 4) [µM] | AC50 [4] [µM] | AC50 (Adenosine receptor A3) [µM] | AC50 [5] [µM] | AC50 [6] [µM] | AC50 [7] [µM] | AC50 [8] [µM] | AC50 (Thromboxane A2 receptor) [µM] | AC50 (Estrogen receptor) [µM] |
| --- | --- | --- | --- | --- | --- | --- | --- | --- | --- | --- | --- | --- |
| CCCN[C@H]1CCc2nc(N)sc2C1 [PRAMIPEXOLE] | > 30 | > 30 | > 10 | > 30 | > 10 | – | – | – | – | – | – | – |
| CC(C)(C)NC[C@H](O)COc1cccc2c1CCCC2=O [LEVOBUNOLOL] | – | – | – | – | – | > 30 | > 30 | > 30 | > 30 | > 30 | > 30 | – |
| CCOC(=O)[C@H](CCc1ccccc1)N[C@@H](C)C(=O)N(CC(=O)O)C1Cc2ccccc2C1 | – | – | – | – | – | > 30 | > 30 | > 30 | > 30 | > 30 | > 30 | – |
| CCC(=O)O[C@]1(C(=O)CCl)[C@@H](C)C[C@H]2[C@@H]3C[C@H](F)C4=CC(=O)C=C[C@]4(C)[C@@]3(F)[C@@H](O)C[C@@]21C [HALOBETASOL PROPIONATE] | – | – | – | – | – | 19.7 | > 30 | > 30 | > 30 | > 30 | > 30 | – |
| CCOC(=O)C1=C(C)NC(C)=C(C(=O)OC)C1c1cccc([N+](=O)[O-])c1 (centres undefined) [NITRENDIPINE] | > 30 | > 10 | > 10 | > 30 | > 10 | – | – | – | – | – | – | > 30 |
| NCC(CC(=O)O)c1ccccc1 (centres undefined) [PHENIBUT] | – | – | – | – | – | > 30 | > 30 | > 30 | > 30 | > 30 | > 30 | – |
| c1ccc2c(c1)CCc1ccccc1N2C1CN2CCC1CC2 (centres undefined) [QUINUPRAMINE] | – | – | – | – | – | > 30 | > 30 | > 30 | > 30 | 4.32 | > 30 | – |
| CNC1=Nc2ccc(Cl)cc2C(c2ccccc2)=[N+]([O-])C1 [CHLORDIAZEPOXIDE] | > 30 | > 10 | > 10 | > 30 | – | – | – | – | – | – | – | > 30 |
| Cc1noc(NS(=O)(=O)c2ccc(N)cc2)c1C [SULFISOXAZOLE] | > 30 | > 10 | > 10 | > 10 | > 10 | – | – | – | – | – | – | > 10 |
| CCCCC1C(=O)N(c2ccccc2)N(c2ccccc2)C1=O [PHENYLBUTAZONE] | – | > 10 | > 10 | > 30 | > 10 | – | – | – | – | – | – | > 10 |
| CCOC(=O)N1CSC[C@H]1C(=O)O [TELMESTEINE] | – | – | – | – | – | > 30 | > 30 | > 30 | > 30 | > 30 | > 30 | – |
| Cc1ncc(COP(=O)(O)O)c(C=O)c1O [PYRIDOXAL PHOSPHATE ANHYDROUS] | – | – | – | – | – | > 30 | > 30 | > 30 | 8.66 | > 30 | > 30 | – |
| CC(N)Cc1ccc(O)cc1 (centres undefined) [HYDROXYAMPHETAMINE] | – | – | – | – | – | > 30 | > 30 | > 30 | > 30 | 9.66 | > 30 | – |
| Cc1cc2cc3c(C)cc(=O)oc3c(C)c2o1 [TRIOXSALEN] | – | > 10 | > 10 | > 10 | > 10 | – | – | – | – | – | – | > 30 |
| NC(=O)OCC(O)COc1ccc(Cl)cc1 (centres undefined) [CHLORPHENESIN CARBAMATE] | – | – | – | – | – | > 30 | > 30 | > 30 | > 30 | > 30 | > 30 | – |
| C=CCSCC1Nc2cc(Cl)c(S(N)(=O)=O)cc2S(=O)(=O)N1 (centres undefined) [ALTHIAZIDE] | – | – | – | – | – | > 30 | > 30 | > 30 | > 30 | > 30 | > 30 | – |

| SMILES | AC50 [1] [µM] | AC50 [2] [µM] | AC50 [3] [µM] | AC50 (Melanocortin receptor 4) [µM] | AC50 [4] [µM] | AC50 (Adenosine receptor A3) [µM] | AC50 [5] [µM] | AC50 [6] [µM] | AC50 [7] [µM] | AC50 [8] [µM] | AC50 (Thromboxane A2 receptor) [µM] | AC50 (Estrogen receptor) [µM] |
| --- | --- | --- | --- | --- | --- | --- | --- | --- | --- | --- | --- | --- |
| O=C(O)c1cn(C2CC2)c2cc(N3CCNCC3)c(F)cc2c1=O [CIPROFLOXACIN] | – | – | – | > 30 | – | – | – | > 30 | – | – | > 30 | > 30 |
| CN1C(=O)/C(=N\NC(N)=S)c2ccccc21 [METHISAZONE] | – | – | – | – | – | 13.9 | > 30 | > 3 | > 10 | > 30 | > 10 | – |
| COC(=O)c1ccc(O)cc1 [METHYLPARABEN] | – | – | – | – | – | > 30 | > 30 | > 30 | > 30 | > 30 | > 30 | – |
| COc1ccc(CN(CCN(C)C)c2ccccn2)cc1 [PYRILAMINE] | – | – | – | – | – | > 30 | > 30 | > 30 | > 30 | > 30 | > 30 | – |
| CC(C)N(CCNC(=O)CN1CCCC1=O)C(C)C | – | – | – | – | – | > 30 | > 30 | > 30 | > 30 | > 30 | > 30 | – |
| C[C@H](Cc1cc2c(c(C(N)=O)c1)N(CCCO)CC2)NCCOc1ccccc1OCC(F)(F)F [SILODOSIN] | – | – | – | – | – | > 30 | > 30 | > 30 | > 30 | > 30 | > 30 | – |
| CCCc1nc(C(C)(C)O)c(C(=O)O)n1Cc1ccc(-c2ccccc2-c2nnn[nH]2)cc1 [OLMESARTAN] | – | – | – | – | – | > 30 | > 30 | > 30 | > 30 | > 30 | > 30 | – |
| CC(CCc1ccc(O)cc1)NCCc1ccc(O)c(O)c1 (centres undefined) [DOBUTAMINE] | 0.0054 | 5.07 | > 30 | > 30 | 6.86 | – | – | – | – | – | – | > 30 |
| CN(C)CCOC(c1ccccc1)c1ccc(Br)cc1 (centres undefined) [BROMODIPHENHYDRAMINE] | – | – | – | – | – | > 30 | > 30 | > 30 | > 30 | 4.22 | 14.8 | – |
| Cc1cc(NC(=O)C2=C(O)c3ccccc3S(=O)(=O)N2C)no1 [ISOXICAM] | – | – | – | – | – | > 30 | > 30 | > 30 | > 30 | > 30 | > 30 | – |
| CC1=CCC(C(C)(C)O)CC1O (centres undefined) [SOBREROL] | – | – | – | – | – | > 30 | > 30 | > 10 | > 30 | > 30 | > 30 | – |
| CNCc1ccc(-c2[nH]c3cc(F)cc4c3c2CCNC4=O)cc1 [RUCAPARIB] | – | > 30 | – | > 30 | – | – | – | – | – | – | – | > 30 |
| Cc1c(N(C)CS(=O)(=O)O)c(=O)n(-c2ccccc2)n1C [METAMIZOLE] | – | – | – | – | – | > 30 | > 30 | > 30 | > 30 | > 30 | > 30 | – |
| Cc1cc(N)c2ccccc2[n+]1CCCCCCCCCC[n+]1c(C)cc(N)c2ccccc21 | – | – | – | – | – | 8.73 | 23.9 | 10 | 14.8 | 1.47 | > 30 | – |
| CC(C)NCC(O)c1ccc(O)c(O)c1 (centres undefined) [ISOPROTERENOL] | – | – | > 10 | > 30 | > 10 | – | – | – | – | – | – | – |
